From ChEMBL document CHEMBL1201862, “PubChem BioAssay data set” (2004)
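Five compound concentrations were applied to cells in 96-well plates for 48 hours; endpoints were derived by simple linear interpolation of the resulting dose-response curve. The concentration for 50% growth inhibition is given as GI50.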 Active and inactive are the calls of the source. Cut-off read from the data, not from the text of the source: active = GI50 up to about 1.1 µM and inactive = higher.

How the values were obtained:
Assay in all cases: NCI-60 cell line screen, 48 h
NCI/ADR-RES = system: NCI/ADR-RES
SK-MEL-5 = system: SK-MEL-5
Hs-578T = system: Hs-578T
HCT-116 = system: HCT-116
K562 = system: K562
OVCAR-4 = system: OVCAR-4
MOLT-4 = system: MOLT-4
NCI-H226 = system: NCI-H226
KM12 = system: KM12
SK-OV-3 = system: SK-OV-3
U-251 = system: U-251
DU-145 = system: DU-145
A549 = system: A549
SR = system: SR
MDA-N = system: MDA-N
SF-539 = system: SF-539
MCF7 = system: MCF7
HT-29 = system: HT-29
HCT-15 = system: HCT-15
DMS-273 = system: DMS-273

Compound	GI50 (NCI/ADR-RES)	GI50 (SK-MEL-5)	GI50 (Hs-578T)	GI50 (HCT-116)	GI50 (K562)	GI50 (OVCAR-4)	GI50 (MOLT-4)	GI50 (NCI-H226)	GI50 (KM12)	GI50 (SK-OV-3)	GI50 (U-251)	GI50 (DU-145)	GI50 (A549)	GI50 (SR)	GI50 (MDA-N)	GI50 (SF-539)	GI50 (MCF7)	GI50 (HT-29)	GI50 (HCT-15)	GI50 (DMS-273)
O=C1NC2c3c(I)sc(I)c3C(=O)C2O1 (stereo not drawn)	6.84 µM (inactive)	2.46 µM (inactive)	13.5 µM (inactive)	2.58 µM (inactive)	4.65 µM (inactive)	9.35 µM (inactive)	3.58 µM (inactive)	5.55 µM (inactive)	11.6 µM (inactive)	17.3 µM (inactive)	6.78 µM (inactive)	14 µM (inactive)	14.1 µM (inactive)	2.96 µM (inactive)	2.96 µM (inactive)	2.56 µM (inactive)	4.58 µM (inactive)	1.7 µM (inactive)	2.08 µM	–
Cc1ccc(S(=O)(=O)N2CCSCCSCCSCCSCC2)cc1	32 µM (inactive)	43.1 µM (inactive)	> 23.3 µM (inactive)	40 µM (inactive)	> 71 µM (inactive)	27.8 µM (inactive)	> 82.2 µM (inactive)	> 49.9 µM (inactive)	> 100 µM (inactive)	19.1 µM (inactive)	18.4 µM (inactive)	> 100 µM (inactive)	61.1 µM (inactive)	> 74.3 µM (inactive)	> 89.7 µM (inactive)	26.9 µM (inactive)	> 72.9 µM (inactive)	> 100 µM (inactive)	> 100 µM	–
Cc1ccc2c(c1)S(=O)(=O)c1ccc3ccccc3c1N2	> 100 µM (inactive)	> 100 µM (inactive)	> 100 µM (inactive)	> 100 µM (inactive)	> 100 µM (inactive)	> 100 µM (inactive)	> 100 µM (inactive)	> 100 µM (inactive)	> 100 µM (inactive)	> 100 µM (inactive)	> 100 µM (inactive)	> 100 µM (inactive)	> 100 µM (inactive)	15.4 µM (inactive)	> 100 µM (inactive)	> 100 µM (inactive)	> 100 µM (inactive)	> 100 µM (inactive)	> 100 µM	–
COC1/C=C/C(C)C(OC)CC(O)/C=C/C(C)C(C(C)C(OC)C(C)CCC(=O)C(C)C(C/C=C/N(C)C=O)OC)OC(=O)/C=C/C=C(\C)CC(OC)CC2=CC(=O)O[C@@H](C(C)C(OC)C1)[C@H]2O (stereo partly drawn)	0.195 µM (active)	0.125 µM (active)	0.0809 µM (active)	0.0188 µM (active)	17.1 µM (inactive)	0.12 µM (active)	0.214 µM (active)	0.122 µM (active)	0.0753 µM (active)	0.151 µM (active)	0.0706 µM (active)	0.544 µM (active)	0.119 µM (active)	0.0929 µM (active)	0.0951 µM (active)	0.114 µM (active)	0.0982 µM (active)	0.0845 µM (active)	0.0556 µM	–
O=C(O)C1C(C(=O)O)C23CC2(C(=O)O)C2(C(=O)O)CCC3=C3CCCC312 (stereo not drawn)	20.7 µM (inactive)	5.22 µM (inactive)	2.67 µM (inactive)	6.85 µM (inactive)	12.7 µM (inactive)	16 µM (inactive)	4.99 µM (inactive)	10.4 µM (inactive)	14 µM (inactive)	3.89 µM (inactive)	5.97 µM (inactive)	11.7 µM (inactive)	6.34 µM (inactive)	2.24 µM (inactive)	4.79 µM (inactive)	4.67 µM (inactive)	11.7 µM (inactive)	7.45 µM (inactive)	15.1 µM	–
COC(=O)c1c(O)ccc2c1c1c(n2CCc2ccc(OC)c(OC)c2)C(=O)c2ccccc2C1=O	10.8 µM (inactive)	11.4 µM (inactive)	10.9 µM (inactive)	12.7 µM (inactive)	20.5 µM (inactive)	13.7 µM (inactive)	9.25 µM (inactive)	19.6 µM (inactive)	13 µM (inactive)	19.4 µM (inactive)	18.4 µM (inactive)	15.6 µM (inactive)	14.5 µM (inactive)	14.8 µM (inactive)	10.9 µM (inactive)	14.4 µM (inactive)	17.9 µM (inactive)	3.13 µM (inactive)	12.7 µM	–
Cc1ccc(S(=O)(=O)N/N=C(/CC(=O)c2c(C)[n+]([O-])c3ccccc3[n+]2[O-])C(=O)Nc2ccc(C)c(C)c2)cc1	–	–	–	38.2 µM (inactive)	–	33 µM (inactive)	–	> 100 µM (inactive)	28.2 µM (inactive)	> 100 µM (inactive)	28.5 µM (inactive)	–	> 100 µM (inactive)	–	–	> 100 µM (inactive)	–	50.9 µM (inactive)	48.6 µM	44.8 µM (inactive)
Cc1nc(Cl)c(CBr)c(Cl)n1	2.41 µM (inactive)	0.914 µM (active)	1.49 µM (inactive)	0.285 µM (active)	0.21 µM (active)	1.83 µM (inactive)	0.33 µM (active)	2.7 µM (inactive)	1.03 µM (active)	3.84 µM (inactive)	2.04 µM (inactive)	2.58 µM (inactive)	6.3 µM (inactive)	0.0813 µM (active)	1.44 µM (inactive)	1.97 µM (inactive)	0.769 µM (active)	0.728 µM (active)	1.61 µM	–
COCOC1C=CCCCC2=CC(C)=C(CC1)O2 (stereo not drawn)	> 100 µM (inactive)	> 100 µM (inactive)	> 100 µM (inactive)	> 100 µM (inactive)	> 100 µM (inactive)	> 100 µM (inactive)	42.3 µM (inactive)	> 100 µM (inactive)	> 100 µM (inactive)	> 100 µM (inactive)	> 100 µM (inactive)	> 100 µM (inactive)	> 100 µM (inactive)	61.7 µM (inactive)	> 100 µM (inactive)	> 100 µM (inactive)	> 100 µM (inactive)	99.1 µM (inactive)	> 100 µM	–
COc1cc(O)c2c(c1)OCC1(Cc3cc(OC)c(OC)cc31)C2=O (stereo not drawn)	88.9 µM (inactive)	2.37 µM (inactive)	42.5 µM (inactive)	86.1 µM (inactive)	36.9 µM (inactive)	40 µM (inactive)	47.3 µM (inactive)	46 µM (inactive)	> 100 µM (inactive)	> 100 µM (inactive)	> 100 µM (inactive)	> 100 µM (inactive)	19.5 µM (inactive)	68.7 µM (inactive)	49.9 µM (inactive)	> 100 µM (inactive)	31.8 µM (inactive)	> 100 µM (inactive)	> 100 µM	–
O=C(CC(=O)N(C(=O)c1ccccc1)c1ccc(Cl)cc1)N/N=C\c1ccccc1O	50.6 µM (inactive)	64 µM (inactive)	26 µM (inactive)	30.6 µM (inactive)	> 100 µM (inactive)	> 100 µM (inactive)	2.61 µM (inactive)	35.5 µM (inactive)	33.5 µM (inactive)	17.2 µM (inactive)	48.2 µM (inactive)	> 100 µM (inactive)	82 µM (inactive)	29.4 µM (inactive)	> 100 µM (inactive)	36.1 µM (inactive)	60.7 µM (inactive)	> 100 µM (inactive)	53.1 µM	–
COc1ccc(OC)c2cc(C3(C)SCCCS3)ccc12	–	> 100 µM (inactive)	–	83.4 µM (inactive)	53.5 µM (inactive)	60.3 µM (inactive)	89.7 µM (inactive)	–	> 100 µM (inactive)	> 100 µM (inactive)	19.3 µM (inactive)	–	> 100 µM (inactive)	–	–	> 100 µM (inactive)	–	40.4 µM (inactive)	88.1 µM	79.6 µM (inactive)
CN(CCCCCl)P(=O)(OCc1ccc([N+](=O)[O-])o1)OCC1OC(n2ccc(N)nc2=O)C(O)C1O (stereo not drawn)	4.47 µM (inactive)	0.097 µM (active)	1.26 µM (inactive)	3.68 µM (inactive)	2.99 µM (inactive)	1.05 µM (active)	0.305 µM (active)	11.4 µM (inactive)	3.24 µM (inactive)	4.17 µM (inactive)	2.14 µM (inactive)	6.93 µM (inactive)	0.303 µM (active)	5.87 µM (inactive)	1.82 µM (inactive)	10.1 µM (inactive)	1.82 µM (inactive)	4.61 µM (inactive)	41.4 µM	–
CC(=O)c1ccc(/N=N/c2ccc3nonc3c2N)cc1	> 100 µM (inactive)	> 100 µM (inactive)	> 100 µM (inactive)	> 100 µM (inactive)	> 100 µM (inactive)	> 100 µM (inactive)	> 100 µM (inactive)	> 100 µM (inactive)	> 100 µM (inactive)	> 100 µM (inactive)	> 100 µM (inactive)	> 100 µM (inactive)	> 100 µM (inactive)	> 100 µM (inactive)	> 100 µM (inactive)	> 100 µM (inactive)	> 100 µM (inactive)	> 100 µM (inactive)	> 100 µM	–
COc1ncn(C2C=C(CO)C(O)C2O)c(=O)n1 (stereo not drawn)	–	> 100 µM (inactive)	–	> 100 µM (inactive)	> 100 µM (inactive)	> 100 µM (inactive)	> 100 µM (inactive)	> 100 µM (inactive)	> 100 µM (inactive)	> 100 µM (inactive)	> 100 µM (inactive)	–	> 100 µM (inactive)	–	–	> 100 µM (inactive)	–	–	> 100 µM	> 100 µM (inactive)
CCN(CC)CCCNC(=O)c1ccc([N+](=O)[O-])cc1O	–	> 100 µM (inactive)	–	–	> 100 µM (inactive)	> 100 µM (inactive)	> 100 µM (inactive)	> 100 µM (inactive)	> 100 µM (inactive)	> 100 µM (inactive)	> 100 µM (inactive)	–	> 100 µM (inactive)	–	–	> 100 µM (inactive)	–	> 100 µM (inactive)	> 100 µM	> 100 µM (inactive)
